# Several values for one entry are separate records, joined by “and”; a condition that tells them apart may be missing. Equal values may be shown once.
# System: 242566-281-R-J2-PDC complex spheroid viability
# Experiment: Anticancer human tumor 242566-281-R-J2-PDC patient-derived pancreatic carcinoma cell line growth inhibition [CLK]
# Settings: for viability, T/C: stronger effect = lower value
# From the text: A high-throughput screen of multi-cell type tumor spheroids was designed to identify active combinations of […] and targeted small molecules. Complex spheroids include a stromal component modeled by human endothelial cells (HUVEC) and fibroblasts modeled by human mesenchymal stem cells (MSCs). The concentration ranges selected for each drug and investigational agent were based upon clinically achievable concentrations if the clinical Cmax of the agent was known.
# Compounds. The drugs and investigational agents: cirtuvivint (SM08502; NSC835563), CC-671 (NSC850746), vemurafenib (NSC761431), tapotoclax (NSC804041), sotorasib (NSC818433), adagrasib (NSC831453), MRTX-1133 (NSC836407), BAY2416964 (NSC825713), copanlisib (NSC816437), inavolisib (NSC800729), abemaciclib (NSC768073), osimertinib (NSC779217), entinostat (NSC756642), eltanexor (KPT-8602, NSC794443), venetoclax (NSC766270), ceralasertib (NSC777638), bortezomib (NSC756655), olaparib (NSC753686), talazoparib (NSC767125), alisertib (NSC759677), peposertib (NSC802822), gemcitabine (NSC613327), 5-fluorouracil (NSC19893), SN-38 (NSC673596), oxaliplatin (NSC266046), paclitaxel (NSC125973), and doxorubicin (NSC123127), were obtained from the National Cancer Institute (NCI) Developmental Therapeutics Program Chemical Repository. The FDA-approved anticancer drug set is available from the Developmental Therapeutics Program at https://dtp.cancer.gov/organization/dscb/obtaining/available plates.htm. […] The stock solutions were prepared in dimethyl sulfoxide (DMSO, Sigma-Aldrich, St. Louis, MO, cat. D2650), except for the platinum complexes which were prepared in saline (Quality Biological, Gaithersburg, MD, cat. 114-055-101), at 800-fold the tested concentration and stored at -70 degrees C prior to their use. All drugs and investigational agents were tested over a range starting from a high concentration at or near the clinical Cmax and decreasing in half-log increments. If the clinical Cmax for an agent had not been determined, the highest concentration tested was 10 microM.
# Cell Culture. All cells were maintained in an incubator at 37 degrees C and 5% CO2 with 95% humidity. The PDC lines were cultured according to standard operating procedures established by the NCI PDMR. Briefly, all PDCs were thawed and cultured in Matrigel-coated flasks prepared with a working solution of 1X Ham's F-12 nutrient mix, without supplementation (Invitrogen, Waltham, MA, cat. 11765054), 100 U/mL penicillin-streptomycin (Invitrogen, cat. 15140122), and 2.5% Matrigel (Corning Inc., Corning, NY, cat. 354248) for the first three passages. The 947758-054-R-J2-PDC line was cultured in 6B/Colon 1A media, which includes advanced DMEM/F-12 (Thermo Fisher Scientific, cat. 12634028), 10 mM HEPES (Thermo Fisher Scientific, cat. 15630080), 1X GlutaMAX supplement (Thermo Fisher Scientific, cat. 35050061), 0.1 mg/mL primocin (InvivoGen, cat. ant-pm-2), 10% defined fetal bovine serum, heat inactivated (HyClone Laboratories Inc., cat. SH30070.03HI), 1.25 mM N-Acetyl-L-cysteine (Sigma-Aldrich, cat. A9165), 10 mM nicotinamide (Sigma-Aldrich, cat. N0636), 1X B-27 supplement (Thermo Fisher Scientific, cat. 17504044), 1X N-2 supplement (Thermo Fisher Scientific, cat. 17502048), and 10 microM Y-27632 dihydrochloride (Tocris Bioscience, cat. 1254). The 876862-298-R-J1-PDC was cultured in 6E media, which includes all 6B/Colon 1A media components plus 50% L-WRN conditioned media (ATCC, cat. CRL-3276), 50 ng/mL recombinant human EGF recombinant protein (hEGF; Thermo Fisher Scientific, cat. PHG0311), 10 ng/mL recombinant human fibroblast growth factor 10 (hGFG-10; PeproTech, cat. 100-26), 1 ng/mL recombinant human fibroblast growth factor 2 (hFGF-2; PeproTech, cat. 100-18B), and 1 µM prostaglandin E2 (PGE2; Tocris, cat. 2296). The 227483-062-R1-J1-PDC line was cultured in Panc media, containing all 6E components except hFGF-2, with the addition of 500 nM SB-431542 (Selleckchem, cat. S1067) and 10 nM gastrin (Tocris, cat. 3006). […]
# 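Further: spheroids exposed to compounds for 7 days before readout.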
# 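Wherever viability, T/C is given: 100% = DMSO vehicle control wells.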
Structure (SMILES),IC50 (curve of compound),"IC50 (compound alone, run of 08/01/2023)","viability, T/C (compound 0.0316 µM)","viability, T/C (compound 0.1 µM)","viability, T/C (compound 0.316 µM)","viability, T/C (compound 1 µM)","viability, T/C (compound 3.16 µM)","viability, T/C (compound 10 µM)"
CC(CO)NC(=O)c1cc(-c2ccc(Cl)cc2)nn(-c2cnn(C)c2)c1=O (stereo not given),> 10 µM,,94.4% and 97.3%,96.2% and 94.5%,85.6% and 102%,116% and 98.1%,131% and 97.1%,75.8% and 82.5%
CC1COCCN1c1cc(C2(S(C)(=N)=O)CC2)nc(-c2ccnc3[nH]ccc23)n1 (stereo not given),6.89 µM and > 10 µM,,108% and 90.3%,104% and 84.2%,106% and 81%,108% and 90.7%,75.2% and 90.5%,37.9% and 60.6%
CNC(=O)c1ccc(Nc2nc(OC3CCCC3)c3c(-c4ccc5nc(C)oc5c4)c[nH]c3n2)c(OC)c1,,> 10 µM and 2.63 µM,,,,69.1% [middle of 12 runs],61% [middle of 12 runs],55.9% [middle of 12 runs]
COc1ccc([C@@H](O)c2cc(-c3ncnc4cc(N5CCOCC5)ccc34)c(F)cc2Cl)nn1,> 10 µM,,112% and 89.3%,111% and 92.2%,96.7% and 104%,83.7% and 91.3%,77.1% and 92.4%,48.2% and 71.3%
COc1cccc2c1C(=O)c1c(O)c3c(c(O)c1C2=O)CC(O)(C(=O)CO)CC3OC1CC(N)C(O)C(C)O1 (stereo not given),0.0666 µM and 0.183 µM,,66.3% and 79%,41.5% and 64.7%,15.3% and 35.8%,7.56% and 20.2%,1.88% and 6.69%,1.33% and 1.37%
Nc1ccccc1NC(=O)c1ccc(CNC(=O)OCc2cccnc2)cc1,4.64 µM and 8.46 µM,,97.8% and 80.4%,82% and 115%,98.7% and 85.3%,84.6% and 107%,68% and 110%,14.5% and 41.5%

# More lines, main results first:
IC50 (curve of compound),"IC50 (compound alone, run of 08/01/2023)",Structure (SMILES),"viability, T/C (compound 0.0316 µM)","viability, T/C (compound 0.1 µM)","viability, T/C (compound 0.316 µM)","viability, T/C (compound 1 µM)","viability, T/C (compound 3.16 µM)","viability, T/C (compound 10 µM)"
< 0.0316 µM and 0.0601 µM,,CC(=O)O[C@H]1C(=O)[C@@]2(C)[C@H]([C@H](OC(=O)c3ccccc3)[C@]3(O)C[C@H](OC(=O)[C@H](O)[C@@H](NC(=O)c4ccccc4)c4ccccc4)C(C)=C1C3(C)C)[C@]1(OC(C)=O)CO[C@@H]1C[C@@H]2O,34.2% and 57.7%,33.9% and 45%,28.5% and 35.4%,23.9% and 38.6%,32.5% and 40%,34.1% and 56.3%
1.18 µM and 2.54 µM,,CC(Nc1ccc2c(c1)OCCn1cc(N3C(=O)OCC3C(F)F)nc1-2)C(N)=O (stereo not given),98.6% and 96.1%,91.6% and 97.8%,71.3% and 89.9%,51.9% and 68.2%,36.4% and 46.8%,21.7% and 32.6%
6.41 µM and > 10 µM,,CC1(C)CCC(CN2CCN(c3ccc(C(=O)NS(=O)(=O)c4ccc(NCC5CCOCC5)c([N+](=O)[O-])c4)c(Oc4cnc5[nH]ccc5c4)c3)CC2)=C(c2ccc(Cl)cc2)C1,110% and 84.2%,89.7% and 93.9%,109% and 102%,117% and 132%,109% and 122%,14.1% and 73.1%
